Data as given in patent US10696639B2, “Heterocyclic compounds as HIV protease inhibitors” (Merck Sharp & Dohme Corp., priority 2016, dated 2020).
pIC50: −log10 of the molar value.

Biological target: T1, wild-type HIV-1 protease (Human immunodeficiency virus type 1 group M subtype B, UniProt P04585)
T1 construct: Escherichia coli expressed wild-type HIV-1 protease protein; made in house; host or cells: Escherichia coli
Test: Assay for Inhibition of Microbial Expressed HIV Protease
Format: biochemical
Conditions: E. coli expressed wild-type HIV-1 protease, peptide substrate cleavage, LC-MS readout; mean of at least two independent experiments; read-out: HIV Pr Enzyme HIV1 PR IC50
Description: Assay for Inhibition of Microbial Expressed HIV Protease
Inhibition of Escherichia coli expressed wild-type HIV-1 protease protein was carried out with a peptide substrate [Val-Ser-Gln-Asn-(βnaphtyl)Ala-Pro-Ile-Val]. The inhibitor compound was preincubated with HIV-1 protease enzyme in assay buffer (50 mM sodium acetate, pH 5.5, 100 mM NaCl, and 0.1% BSA) for 30 minutes at room temperature. Peptide substrate was added to […] in a total volume of 20 μL containing 20 pM HIV-1 protease (final) after which the reaction was incubated for 1 hour at 30° C. The reaction was quenched by the addition of formic acid and HIV protease inhibitor indinavir to 0.012% and 150 nM final concentrations, respectively. Product formation was determined after separation of product and substrate on a ZORBAX Eclipse XDB-C18 column (Aligent Technologies, Santa Clara, Calif., USA) connected to an API 4000™ mass spectrometer (AB Sciex, Pte. Ltd., Concord Ontario, Canada) with multiple reaction monitoring (transitions were 644.5/428.9 and 615.4/422.2 (M1/M3) for product and indinavir respectively). The extent of inhibition of the reaction was determined from the peak area of the products. Analysis of the products, independently synthesized, provided quantitation standards and confirmation of the product composition.

| Structure (SMILES) | pIC50 |
| --- | --- |
| COC(=O)N[C@@H](Cc1cccc(Cl)c1)C(=O)NC(CCCN1C(=N)N[C@](CC(C)C)(c2ccccc2)C1=O)CC1CC1 (stereo partly drawn) [Example 30, 3-chloro-N-{1-(cyclopropylmethyl)-4-[(4R)-2-imino-4-(2-methylpropyl)-5-oxo-4-phenylimidazolidin-1-yl]butyl}-N-alpha-(methoxycarbonyl)-L-phenylalaninamide] | 7.01 |
| COC(=O)N[C@@H](Cc1ccccc1Cl)C(=O)NC(CCCN1C(=N)N[C@](CC(C)C)(c2ccccc2)C1=O)CC1CC1 (stereo partly drawn) [Example 31, 2-chloro-N-{1-(cyclopropylmethyl)-4-[(4R)-2-imino-4-(2-methylpropyl)-5-oxo-4-phenylimidazolidin-1-yl]butyl}-N-alpha-(methoxycarbonyl)-L-phenylalaninamide_] | 7.10 |
| COC(=O)N[C@@H](Cc1cccc(Cl)c1)C(=O)N[C@H](CCCN1C(=N)N[C@](CC(C)C)(c2ccccc2)C1=O)C1CC1 [Example 32, 3-chloro-N-{(1R)-1-cyclopropyl-4-[(4R)-2-imino-4-(2-methylpropyl)-5-oxo-4-phenylimidazolidin-1-yl]butyl}-N-alpha-(methoxycarbonyl)-L-phenylalaninamide] | 7.37 |
| COC(=O)N[C@@H](Cc1ccccc1Cl)C(=O)N[C@H](CCCN1C(=N)N[C@](CC(C)C)(c2ccccc2)C1=O)C1CC1 [Example 33, 2-chloro-N-{(1R)-1-cyclopropyl-4-[(4R)-2-imino-4-(2-methylpropyl)-5-oxo-4-phenylimidazolidin-1-yl]butyl}-N-alpha-(methoxycarbonyl)-L-phenylalaninamide] | 7.64 |
| COC(=O)N[C@@H](Cc1ccccc1Cl)C(=O)N[C@@H](C)CCCN1C(=N)N[C@](CC(C)C)(c2ccccc2)C1=O [Example 34, 2-chloro-N-{(1S)-4-[(4R)-2-imino-4-(2-methylpropyl)-5-oxo-4-phenylimidazolidin-1-yl]-1-methylbutyl}-N-alpha-(methoxycarbonyl)-L-phenylalaninamide] | 7.74 |
| COC(=O)N[C@@H](Cc1cccc(Cl)c1)C(=O)N[C@@H](C)CCCN1C(=N)N[C@](CC(C)C)(c2ccccc2)C1=O [Example 35, 3-chloro-N-{(1S)-4-[(4R)-2-imino-4-(2-methylpropyl)-5-oxo-4-phenylimidazolidin-1-yl]-1-methylbutyl}-N-alpha-(methoxycarbonyl)-L-phenylalaninamide] | 7.70 |
| COC(=O)N[C@@H](Cc1ccccc1)C(=O)N[C@H](CCCN1C(=N)N[C@](CC(C)C)(c2ccccc2)C1=O)C1CC1 [Example 36, N-{(1R)-1-cyclopropyl-4-[(4R)-2-imino-4-(2-methylpropyl)-5-oxo-4-phenylimidazolidin-1-yl]butyl}-N-alpha-(methoxycarbonyl)-L-phenylalaninamide] | 8.05 |
| COC(=O)N[C@@H](Cc1ccc(Cl)cc1)C(=O)N[C@@H](C)CCCN1C(=N)N[C@](CC(C)C)(c2ccccc2)C1=O [Example 37, 4-chloro-N-{(1S)-4-[(4R)-2-imino-4-(2-methylpropyl)-5-oxo-4-phenylimidazolidin-1-yl]-1-methylbutyl}-N-alpha-(methoxycarbonyl)-L-phenylalamnamide] | 7.21 |
| COC(=O)N[C@@H](Cc1cccc2ccccc12)C(=O)N[C@@H](C)CCCN1C(=N)N[C@](CC(C)C)(c2ccccc2)C1=O [Example 38, methyl [(1S)-2-({(1S)-4-[(4R)-2-imino-4-(2-methylpropyl)-5-oxo-4-phenylimidazolidin-1-yl]-1-methylbutyl}amino)-1-(naphthalen-1-ylmethyl)-2-oxoethyl]carbamate] | 7.64 |
| COC(=O)N[C@@H](Cc1ccccc1OC)C(=O)N[C@@H](C)CCCN1C(=N)N[C@](CC(C)C)(c2ccccc2)C1=O [Example 39, N-{(1S)-4-[(4R)-2-imino-4-(2-methylpropyl)-5-oxo-4-phenylimidazolidin-1-yl]-1-methylbutyl}-2-methoxy-N-alpha-(methoxycarbonyl)-L-phenylalaninamide] | 8.52 |
| COC(=O)N[C@@H](Cc1cccc(OC)c1)C(=O)N[C@@H](C)CCCN1C(=N)N[C@](CC(C)C)(c2ccccc2)C1=O [Example 40, N-{(1S)-4-[(4R)-2-imino-4-(2-methylpropyl)-5-oxo-4-phenylimidazolidin-1-yl]-1-methylbutyl}-3-methoxy-N-alpha-(methoxycarbonyl)-L-phenylalaninamide] | 7.27 |
| COC(=O)N[C@@H](CC1CCCCC1)C(=O)N[C@@H](C)CCCN1C(=N)N[C@](CC(C)C)(c2ccccc2)C1=O [Example 41, methyl [(1S)-1-(cyclohexylmethyl)-2-({(1S)-4-[(4R)-2-imino-4-(2-methylpropyl)-5-oxo-4-phenylimidazolidin-1-yl]-1-methylbutyl}amino)-2-oxoethyl]carbamate] | 7.51 |
| COC(=O)N[C@@H](Cc1ccc2ccccc2c1)C(=O)N[C@@H](C)CCCN1C(=N)N[C@](CC(C)C)(c2ccccc2)C1=O [Example 42, methyl ((S)-1-(((S)-5-((R)-2-imino-4-isobutyl-5-oxo-4-phenylimidazolidin-1-yl)pentan-2-yl)amino)-3-(naphthalen-2-yl)-1-oxopropan-2-yl)carbamate] | 7.34 |
| COC(=O)N[C@@H](Cc1cccc(Cl)c1)C(=O)N[C@H](CCCN1C(=N)N[C@](CC(C)C)(c2ccccc2)C1=O)C(C)C [Example 43, 3-chloro-N-[(1R)-4-[(4R)-2-imino-4-(2-methylpropyl)-5-oxo-4-phenylimidazolidin-1-yl]-1-(1-methylethyl)butyl]-N-alpha-(methoxycarbonyl)-L-phenylalaninamide] | 8.30 |
| COC(=O)N[C@@H](Cc1ccccc1Cl)C(=O)N[C@H](CCCN1C(=N)N[C@](CC(C)C)(c2ccccc2)C1=O)C(C)C [Example 44, 2-chloro-N-[(1R)-4-[(4R)-2-imino-4-(2-methylpropyl)-5-oxo-4-phenylimidazolidin-1-yl]-1-(1-methylethyl)butyl]-N-alpha-(methoxycarbonyl)-L-phenylalaninamide] | 7.70 |
| COC(=O)N[C@@H](Cc1ccccc1)C(=O)N[C@H](CCCN1C(=N)N[C@](CC(C)C)(c2ccccc2)C1=O)C(C)C [Example 45, N-[(1R)-4-[(4R)-2-imino-4-(2 methylpropyl)-5-oxo-4-phenylimidazolidin-1-yl]-1-(1 methylethyl)butyl]-N-alpha-(methoxycarbonyl)-L-phenylalaninamide] | 7.57 |
| COC(=O)N[C@@H](Cc1ccccc1)C(=O)N[C@H](CCCN1C(=N)N[C@](CC(C)C)(c2ccccc2)C1=O)C(F)(F)F [Example 46, N-[(1R)-4-[(4R)-2-imino-4-(2-methylpropyl)-5-oxo-4-phenylimidazolidin-1-yl]-1-(trifluoromethyl)butyl]-N-alpha-(methoxycarbonyl)-L-phenylalaninamide] | 7.49 |
| CC[C@@H](CCCN1C(=N)N[C@](CC(C)C)(c2ccccc2)C1=O)NC(=O)[C@H](Cc1ccccc1)NC(=O)OC [Example 47, N-{(1S)-1-ethyl-4-[(4R)-2-imino-4-(2-methylpropyl)-5 oxo-4-phenylimidazolidin-1 yl]butyl}-N-alpha-(methoxycarbonyl)-L-phenylalaninamide] | 7.66 |
| CC[C@@H](CCCN1C(=N)N[C@](CC(C)C)(c2ccccc2)C1=O)NC(=O)[C@H](Cc1ccc(Cl)cc1)NC(=O)OC [Example 48, 4-chloro-N-{(1S)-1-ethyl-4-[(4R)-2-imino-4-(2-methylpropyl)-5-oxo-4-phenylimidazolidin-1-yl]butyl}-N-alpha-(methoxycarbonyl)-L-phenylalaninamide] | 7.85 |
| CC[C@@H](CCCN1C(=N)N[C@](CC(C)C)(c2ccccc2)C1=O)NC(=O)[C@H](Cc1cccc(Cl)c1)NC(=O)OC [Example 49, 3-chloro-N-{(1S)-1-ethyl-4-[(4R)-2-imino-4-(2-methylpropyl)-5-oxo-4-phenylimidazolidin-1-yl]butyl}-N-alpha-(methoxycarbonyl)-L-phenylalaninamide] | 7.82 |
| CC[C@@H](CCCN1C(=N)N[C@](CC(C)C)(c2ccccc2)C1=O)NC(=O)[C@H](Cc1ccccc1Cl)NC(=O)OC [Example 50, 2-chloro-N-{(1S)-1-ethyl-4-[(4R)-2-imino-4-(2-methylpropyl)-5-oxo-4-phenylimidazolidin-1-yl]butyl}-N-alpha-(methoxycarbonyl)-L-phenylalaninamide] | 8.22 |
| COC(=O)N[C@@H](Cc1ccccc1)C(=O)NCCC[C@H](C1CC1)N1C(=N)N[C@](CC(C)C)(c2ccccc2)C1=O [Example 51, N-{(4R)-4-cyclopropyl-4-[(4R)-2-imino-4-(2-methylpropyl)-5-oxo-4-phenylimidazolidin-1-yl]butyl}-N-alpha-(methoxycarbonyl)-L-phenylalaninamide] | 8.15 |
| COC(=O)N[C@@H](Cc1ccccc1)C(=O)NCCC[C@@H](C1CC1)N1C(=N)N[C@](CC(C)C)(c2ccccc2)C1=O [Example 52, N-{(4S)-4-cyclopropyl-4-[(4R)-2-imino-4-(2-methylpropyl)-5-oxo-4-phenylimidazolidin-1-yl]butyl}-N-alpha-(methoxycarbonyl)-L-phenylalaninamide] | 6.22 |
